Five molecules from ChEMBL document CHEMBL1156987, “Novel azalides derived from 16-membered macrolides. III. Azalides modified at the C-15 and 4'' positions: Improved antibacterial activities” (Bioorg Med Chem, 2010) can be followed below.

In brackets after ≈: the same amount, converted by molar mass.

The test system of data set [1] is Staphylococcus aureus. Put plainly: Antibacterial activity against Staphylococcus aureus 209P JC1 after 20 hrs by agar dilution method. The format is functional. The conditions noted are these: 209P JC1, 20 h. (In agar dilution, organisms are placed on agar that contains the substance at set levels.)
The subject of data set [2] is Streptococcus pneumoniae. Put plainly: Antibacterial activity against Streptococcus pneumoniae DP1 type 1 after 20 hrs by agar dilution method. The note with it: DP1 type1, 20 h. The format is functional.
The test system of data set [3] is Streptococcus pneumoniae. Put plainly: Antibacterial activity against Streptococcus pneumoniae 5 expressing constitutive ermB methylase after 20 hrs by agar dilution method. The format is functional. The note with it: Streptococcus pneumoniae, 5, 20 h.
Data set [4] concerns Streptococcus pneumoniae. Put plainly: Antibacterial activity against Streptococcus pneumoniae 6 expressing constitutive ermB methylase and mefA after 20 hrs by agar dilution method. It is filed as functional. The conditions noted are these: Streptococcus pneumoniae, 6, 20 h.
For data set [5], the system named is Streptococcus pneumoniae. Put plainly: Antibacterial activity against Streptococcus pneumoniae 7 expressing constitutive ermB methylase after 20 hrs by agar dilution method. The note with it: Streptococcus pneumoniae, 7, 20 h. It is filed as functional.
The subject of data set [6] is Streptococcus pneumoniae. Put plainly: Antibacterial activity against Streptococcus pneumoniae 8 expressing inducible ermB methylase after 20 hrs by agar dilution method. The note with it: Streptococcus pneumoniae, 8, 20 h. It is filed as functional.
In data set [7] the test system is Streptococcus pneumoniae. Put plainly: Antibacterial activity against Streptococcus pneumoniae 9 expressing inducible ermB methylase after 20 hrs by agar dilution method. It is filed as functional. The conditions noted are these: Streptococcus pneumoniae, 9, 20 h.
The subject of data set [8] is Streptococcus pneumoniae. Put plainly: Antibacterial activity against Streptococcus pneumoniae 10 expressing mefA efflux pump after 20 hrs by agar dilution method. The conditions noted are these: Streptococcus pneumoniae, 10, 20 h. The format is functional.
Data set [9] has as its system Streptococcus pneumoniae. Put plainly: Antibacterial activity against Streptococcus pneumoniae 11 expressing mefA efflux pump after 20 hrs by agar dilution method. The note with it: Streptococcus pneumoniae, 11, 20 h. The format is functional.
For data set [10], the system named is Streptococcus pyogenes. Put plainly: Antibacterial activity against Streptococcus pyogenes Cook after 20 hrs by agar dilution method. It is filed as functional.
Data set [11] has as its system Streptococcus pyogenes. Put plainly: Antibacterial activity against Streptococcus pyogenes 2 expressing constitutive ermB methylase after 20 hrs by agar dilution method. It is filed as functional. The note with it: Streptococcus pyogenes, 2, 20 h.
Data set [12] deals with Streptococcus pyogenes. Put plainly: Antibacterial activity against Streptococcus pyogenes 3 expressing mefA efflux pump after 20 hrs by agar dilution method. The format is functional. The conditions noted are these: Streptococcus pyogenes, 3, 20 h.
Data set [13] has as its system Haemophilus influenzae. Put plainly: Antibacterial activity against Haemophilus influenzae 1 after 20 hrs by agar dilution method. The format is functional. The conditions noted are these: Haemophilus influenzae, 1, 20 h.
The subject of data set [14] is Haemophilus influenzae. Put plainly: Antibacterial activity against Haemophilus influenzae 2 after 20 hrs by agar dilution method. It is filed as functional. The note with it: Haemophilus influenzae, 2, 20 h.
In data set [15] the test system is Haemophilus influenzae. Put plainly: Antibacterial activity against Haemophilus influenzae 3 after 20 hrs by agar dilution method. It is filed as functional. The note with it: Haemophilus influenzae, 3, 20 h.
Data set [16] can be described thus: Metabolic stability at human liver S9 fraction assessed as compound remaining after 1 hr. The format is ADME, subcellular. The conditions noted are these: read-out: Stability.

Turning to `CCNC(=O)O[C@H]1[C@H](C)O[C@@H](O[C@H]2[C@H](N(C)C)[C@@H](O)[C@H](O[C@H]3[C@@H](CC=O)C[C@@H](C)[C@@H](O)CN(C)CCC[C@H](C/C=C/c4cnc5ccccc5c4)OC(=O)C[C@@H](OC(=O)CC)[C@@H]3OC)O[C@@H]2C)C[C@@]1(C)OC(=O)CC`, the MIC in data set [1] stood at 0.25 µg/mL (≈ 0.236 µM); in data set [2], 0.015 µg/mL (≈ 0.0142 µM); in [3], 16 µg/mL (≈ 15.1 µM); in [4], 16 µg/mL (≈ 15.1 µM); in data set [5] it was 16 µg/mL (≈ 15.1 µM); in data set [6], 0.13 µg/mL (≈ 0.123 µM). Besides, the MIC in [7] amounted to 0.25 µg/mL (≈ 0.236 µM); in data set [8], 0.015 µg/mL (≈ 0.0142 µM); in data set [9], 0.015 µg/mL (≈ 0.0142 µM); in data set [10], 0.06 µg/mL (≈ 0.0567 µM); in [11] it was 32 µg/mL (≈ 30.3 µM); in [12] it was 0.13 µg/mL (≈ 0.123 µM). The MIC is 8 µg/mL (≈ 7.57 µM) in data set [13], 16 µg/mL (≈ 15.1 µM) in [14] and 16 µg/mL (≈ 15.1 µM) in data set [15]. In addition, the remaining at 1 h in data set [16] turned out to be 79%.
For the molecule `CCC(=O)O[C@@H]1CC(=O)O[C@@H](C/C=C/c2cnc3ccccc3c2)CCCN(C)C[C@H](O)[C@H](C)C[C@H](CC=O)[C@H](O[C@@H]2O[C@H](C)[C@@H](O[C@H]3C[C@@](C)(OC(=O)CC)[C@@H](OC(=O)NC)[C@H](C)O3)[C@H](N(C)C)[C@H]2O)[C@H]1OC`, the MIC in data set [1] was 0.25 µg/mL (≈ 0.24 µM); in data set [2] it was below 0.008 µg/mL; in [3], 32 µg/mL (≈ 30.7 µM); in [4], 32 µg/mL (≈ 30.7 µM); in [5], 32 µg/mL (≈ 30.7 µM); in [6], 0.25 µg/mL (≈ 0.24 µM). For the same molecule, the MIC in data set [7] was 0.5 µg/mL (≈ 0.479 µM); in data set [8] it was 0.015 µg/mL (≈ 0.0144 µM); in data set [9], 0.03 µg/mL (≈ 0.0288 µM); in [10], 0.06 µg/mL (≈ 0.0575 µM); in data set [11], above 32 µg/mL; in [12], 0.06 µg/mL (≈ 0.0575 µM). Besides, the MIC in data set [13] was found to be 4 µg/mL (≈ 3.83 µM); in [14], 8 µg/mL (≈ 7.67 µM); in data set [15] it was 8 µg/mL (≈ 7.67 µM). Moreover, the remaining at 1 h in [16] was 78%.
`CCC(=O)O[C@@H]1CC(=O)O[C@@H](C/C=C/c2cnc3ccccc3c2)CCCN(C)C[C@H](O)[C@H](C)C[C@H](CC=O)[C@H](O[C@@H]2O[C@H](C)[C@@H](O[C@H]3C[C@@](C)(O)[C@@H](OC(=O)CC)[C@H](C)O3)[C@H](N(C)C)[C@H]2O)[C@H]1OC`: the MIC in data set [1] was 0.5 µg/mL (≈ 0.507 µM); in [2] it was 0.015 µg/mL (≈ 0.0152 µM); in data set [3], 128 µg/mL (≈ 130 µM); in data set [4] it was 128 µg/mL (≈ 130 µM); in data set [5] it was 128 µg/mL (≈ 130 µM); in data set [6] it was 8 µg/mL (≈ 8.11 µM). Further, the MIC in data set [7] is 8 µg/mL (≈ 8.11 µM); in data set [8], 0.06 µg/mL (≈ 0.0608 µM); in data set [9], 0.03 µg/mL (≈ 0.0304 µM); in [10] it was 0.06 µg/mL (≈ 0.0608 µM); in data set [11] it was above 128 µg/mL; in data set [12], 0.5 µg/mL (≈ 0.507 µM). Further, the results for the MIC in [13], in data set [14] and in data set [15] were 2 µg/mL (≈ 2.03 µM), 8 µg/mL (≈ 8.11 µM) and 8 µg/mL (≈ 8.11 µM), respectively. Moreover, the remaining at 1 h in [16] came to 28%.
For the molecule `CCC(=O)O[C@@H]1CC(=O)O[C@@H](C/C=C/c2ccc3ccccc3c2)CCCN(C)C[C@H](O)[C@H](C)C[C@H](CC=O)[C@H](O[C@@H]2O[C@H](C)[C@@H](O[C@H]3C[C@@](C)(O)[C@@H](OC(=O)CC)[C@H](C)O3)[C@H](N(C)C)[C@H]2O)[C@H]1OC`, the MIC in data set [1] was 0.5 µg/mL (≈ 0.507 µM); in [2] it was 0.06 µg/mL (≈ 0.0609 µM); in data set [3] it was 32 µg/mL (≈ 32.5 µM); in [4] it was 32 µg/mL (≈ 32.5 µM); in data set [5], 32 µg/mL (≈ 32.5 µM); in data set [6] it was 8 µg/mL (≈ 8.12 µM). In addition, the MIC in data set [7] was determined as 8 µg/mL (≈ 8.12 µM); in data set [8] it was 0.13 µg/mL (≈ 0.132 µM); in [9] it was 0.13 µg/mL (≈ 0.132 µM); in data set [10], 0.25 µg/mL (≈ 0.254 µM); in [11], 32 µg/mL (≈ 32.5 µM); in data set [12], 1 µg/mL (≈ 1.01 µM). In addition, the MIC in [13] was determined as 8 µg/mL (≈ 8.12 µM); in [14], 16 µg/mL (≈ 16.2 µM); in data set [15], 16 µg/mL (≈ 16.2 µM).
As to `CCNC(=O)O[C@H]1[C@H](C)O[C@@H](O[C@H]2[C@H](N(C)C)[C@@H](O)[C@H](O[C@H]3[C@@H](CC=O)C[C@@H](C)[C@@H](O)CN(C)CCC[C@H](C/C=C/c4cnc5ccccc5c4)OC(=O)C[C@@H](O)[C@@H]3OC)O[C@@H]2C)C[C@@]1(C)OC(=O)CC`, the MIC in [1] is 0.25 µg/mL (≈ 0.25 µM); in data set [2] it was below 0.008 µg/mL; in [3] it was 4 µg/mL (≈ 4 µM); in [4] it was 4 µg/mL (≈ 4 µM); in [5] it was 4 µg/mL (≈ 4 µM); in data set [6], 0.06 µg/mL (≈ 0.0599 µM). Besides, the MIC in data set [7] was 0.06 µg/mL (≈ 0.0599 µM); in data set [8], 0.015 µg/mL (≈ 0.015 µM); in data set [9], 0.015 µg/mL (≈ 0.015 µM); in [10], 0.06 µg/mL (≈ 0.0599 µM); in [11], 8 µg/mL (≈ 7.99 µM); in [12], 0.06 µg/mL (≈ 0.0599 µM). Also, the figures for the MIC in data set [13], in [14] and in data set [15] were 2 µg/mL (≈ 2 µM), 4 µg/mL (≈ 4 µM) and 4 µg/mL (≈ 4 µM), respectively.
